# Read-outs that look alike come from different tables or passages of the source.
# How the values were obtained:
# [1] = Metabolism by human liver microsomes; assay type: in vitro ADME; settings: in the presence of NADPH; for Scoring (% of drug remaining after 60 minutes, PDR60): Table 8, 10 µM, 1 mg/mL protein
# Experimental: Representative compounds of the invention (i.e., test compounds) and the positive control, 7-ethoxycoumarin, were prepared as stock solutions at 10 mM in DMSO and eventually diluted to 10 μM in the test plate, with an appropriate amount of acetonitrle and tris HCl buffer. Final DMSO and acetonitrile concentrations were […] and 0.5% respectively. NADPH was prepared in tris HCl buffer to a stock of 10 mM. A frozen aliquot of live microsomes was retrieved from the freezer (−80° C.) and thawed by placing the tube on wet ice. After thawing, the tubes were gently mixed and the required amount, transferred to tris HCl buffer. Test compounds or positive control were pre-incubated, separately, for 10 minutes, with liver microsomes (1 mg/mL protein), at 37° C., in 100 mM Tris HCl at pH 7.5. After preincubation the reaction was started by adding 1 mM NADPH (pre-equilibrated to […]) and the reaction allowed to proceed for 60 minutes. At 60 minutes, a 50 μL aliquot was removed and quenched with 200 uL of acetonitrile containing a mixture of internal standards (Tolbutamide (500 ng/mL) and Telmistartan (500 ng/mL)) and vortexed then centrifuged at 4000 rmp for 10 minutes (Eppendorf 5810R). The supernatant was transferred to a 96 well plate for LC-MS/MS analysis.
# An LC-MS/MS method was devised for the test compounds and the control, using a AB Sciex API 4000 system coupled to a NEXAR™ UHPLC (Shimadzu) system. Analytes were separated on a Phenomenex Kinetex C18 column (50×2.1 mm, 5 μm) using a gradient that was appropriate for each compound, at a flow rate of 1 ml/minute, utilizing a mobile phase of 0.1% formic acid in MILLI-Q™ water (A) and 0.1% formic acid in acetonitrile (B). The MS instrument was operated in positive mode (ESI+)/negative (ESI−). The multiple reaction monitoring (MRM) transition for test and control compounds was used for the LC-MS/MS analysis. MRM transitions for control compound 7-ethoxycoumarinm were Quadropole 1: 191.0, Quadropole 3: 163.0, dwell time: 75 msec, using curtain gas settings of 5 V, ion-spray voltage of 5500 V, temperature of 50° C. and gas settings for nebulizer and auxiliary set to 30 and 40 psi, respectively. The interface heater was kept on. Entrance potential and collision cell exit potential were varied to tune for a specific compound.
# Using a suitable LC-MS/MS method, the percentage of drug remaining at 60 minutes ([…]) was assessed by comparing the average analyte to internal standard area ratio at 60 minutes to the average analyte to internal standard area ratio at 0 time control, as a percentage, from a 5 to 10 μL sample injection.
# According to the above assay, the representative compounds listed in Table 8 below were active in the Human liver microsome assay at […] and the % of drug remaining after 60 minutes (PDR60), in the presence of NADPH, was assessed by LC-MS/MS. Average PDR60 for the standard compound, 7-ethoxycoumarin was <=65% in the presence of NADPH. Scoring for the test compounds, in the presence of NADPH, was as follows: “A” represents a PDR^60 of 81 to 100%, “B” represents a PDR^60 of 61 to 80%, “C” represents a PDR^60 of 31 to 60% and “D” represents a PDR^60 of 0 to 30%.
# [2] = tested on: Rat DRG; experiment: Rat dorsal root ganglion excitability response (EFS, Ca2+ transients); assay type: cell-based
# Experimental: Dorsal root ganglions (DRGs) were dissected from adult rats. The tissue was processed, and cells were seeded into call culture plates (48 center wells of one quadrant in 384-well plates) and cultured for 2 days prior to Electrical field stimulation (EFS). To visualize the neuronal excitability response, intracellular Ca^+2 transients were monitored using the Ca^+2 indicator, Ca5. Ca5 was added to the cultures 1 h prior to EFS. Representative test compounds of the invention (i.e., test compounds) and reference compound, tetracaine, were added in concentration-response format encompassing six concentrations, performed in duplicate. The highest concentration tested was typically 30 μM with 1 in 3 dilutions generating the subsequent concentrations.
# Effects on DRG excitability by the test compounds and standard were evaluated using four EFS protocols as disclosed in Table 2.
# Experimental results were performed using two separate sets of plates using separate test compound and standard dilutions, to provide n=2. In the first set of experiments, compounds were added 24 h prior to EFS to increase the possibility to also detect more long-term compound effects. In the second set of experiments the compounds were added directly prior to EFS. Excitability response to EFS was analyzed as the average fluorescence ratio (peak/baseline) change per well. All plates were evaluated using high content imaging equipment post-EFS, imaging the Ca5 background staining to detect any possible compound-related toxic effects.
# Average response by the standard compound, tetracaine, was 4.05 μM.
# [3] = Rattus norvegicus, Table 3, electrical field stimulation, Ca5 indicator, read-out: Scoring (EC50, Rat DRG excitability)
"Scoring (% of drug remaining after 60 minutes, PDR60) [1]",SMILES,"EC50 [2, 3] [nM]",other results
,"CCOc1ccc2ccc(=O)oc2c1 [7-ethoxycoumarin, reference compound]",,Average PDR60 [1]: <= 65%
B (a PDR^60 of 61 to 80%),"CC1(C)CCC2=C1CC[C@H]([C@@]1(C)Cc3cn[nH]c3C[C@@H]1CO)[C@H]2CN [Ia-2, ((5R,6S)-5-((4R,5S)-4-(aminomethyl)-1,1-dimethyl-2,3,4,5,6,7-hexahydro-1H-inden-5-yl)-5-methyl-4,5,6,7-tetrahydro-1H-indazol-6-yl)methanol]",> 15000,
D (a PDR^60 of 0 to 30%),"C[C@H]1CC[C@H]2[C@H](CO)[C@@H]([C@@]3(C)Cc4cn[nH]c4C[C@@H]3CO)CC[C@]12C [Ia-5, ((5R,6S)-5-((1S,3aS,4S,5S,7aR)-4-(hydroxymethyl)-1,7a-dimethyloctahydro-1H-inden-5-yl)-5-methyl-4,5,6,7-tetrahydro-1H-indazol-6-yl)methanol]",,
B (a PDR^60 of 61 to 80%),"C=C1CC[C@H]2[C@H](CN)[C@@H]([C@@]3(C)Cc4cn(-c5ccccn5)nc4C[C@@H]3CO)CC[C@]12C [Ia-11, ((5R,6S)-5-((3aS,4R,5S,7aS)-4-(aminomethyl)-7a-methyl-1-methyleneoctahydro-1H-inden-5-yl)-5-methyl-2-(pyridin-2-yl)-4,5,6,7-tetrahydro-2H-indazol-6-yl)methanol]",2000 to 6000,
D (a PDR^60 of 0 to 30%),"C=C1CC[C@H]2[C@H](CN)[C@@H]([C@@]3(C)Cc4cnn(C(C)(C)C)c4C[C@@H]3CO)CC[C@]12C [Ia-12, ((5R,6S)-5-((3aS,4R,5S,7aS)-4-(aminomethyl)-7a-methyl-1-methyleneoctahydro-1H-inden-5-yl)-1-(tert-butyl)-5-methyl-4,5,6,7-tetrahydro-1H-indazol-6-yl)methanol]",2000 to 6000,
A (a PDR^60 of 81 to 100%),"C=C1CC[C@H]2[C@H](CN)[C@@H]([C@@]3(C)Cc4cn(C(C)(C)C)nc4C[C@@H]3CO)CC[C@]12C [Ia-13, ((5R,6S)-5-((3aS,4R,5S,7aS)-4-(aminomethyl)-7a-methyl-1-methyleneoctahydro-1H-inden-5-yl)-2-(tert-butyl)-5-methyl-4,5,6,7-tetrahydro-2H-indazol-6-yl)methanol]",2000 to 6000,
B (a PDR^60 of 61 to 80%),"C=C1CC[C@H]2[C@H](CN)[C@@H]([C@@]3(C)Cc4cnn(C5CCCCC5)c4C[C@@H]3CO)CC[C@]12C [Ia-16, ((5R,6S)-5-((3aS,4R,5S,7aS)-4-(aminomethyl)-7a-methyl-1-methyleneoctahydro-1H-inden-5-yl)-1-cyclohexyl-5-methyl-4,5,6,7-tetrahydro-1H-indazol-6-yl)methanol]",2000 to 6000,
,"C=C1CC[C@H]2[C@H](CN)[C@@H]([C@@]3(C)Cc4cn(CC(C)(C)C)nc4C[C@@H]3CO)CC[C@]12C [Ia-23, ((5R,6S)-5-((3aS,4R,5S,7aS)-4-(aminomethyl)-7a-methyl-1-methyleneoctahydro-1H-inden-5-yl)-5-methyl-2-neopentyl-4,5,6,7-tetrahydro-2H-indazol-6-yl)methanol]",2000 to 6000,
A (a PDR^60 of 81 to 100%),"C[C@]1([C@H]2CC[C@]3(C)C=CC[C@H]3[C@@H]2CN)Cc2cn[nH]c2C[C@@H]1CO [Ia-28, ((5R,6S)-5-((3aR,6S,7R,7aS)-7-(aminomethyl)-3a-methyl-3a,4,5,6,7,7a-hexahydro-1H-inden-6-yl)-5-methyl-4,5,6,7-tetrahydro-1H-indazol-6-yl)methanol]",,
,"C[C@H]1CC[C@H]2[C@H](CN)[C@@H]([C@@]3(C)Cc4cnn(-c5ccccc5)c4C[C@@H]3CO)CC[C@]12C [Ia-35, ((5R,6S)-5-((1S,3aS,4S,5S,7aR)-4-(aminomethyl)-1,7a-dimethyloctahydro-1H-inden-5-yl)-5-methyl-1-phenyl-4,5,6,7-tetrahydro-1H-indazol-6-yl)methanol]",< 2000,
,"C[C@H]1CC[C@H]2[C@H](CN)[C@@H]([C@@]3(C)Cc4cnn(C5CCCCC5)c4C[C@@H]3CO)CC[C@]12C [Ia-37, ((5R,6S)-5-((1S,3aS,4S,5S,7aR)-4-(aminomethyl)-1,7a-dimethyloctahydro-1H-inden-5-yl)-1-cyclohexyl-5-methyl-4,5,6,7-tetrahydro-1H-indazol-6-yl)methanol]",< 2000,
,"C[C@H]1CC[C@H]2[C@H](CN)[C@@H]([C@@]3(C)Cc4cnn(CC(C)(C)C)c4C[C@@H]3CO)CC[C@]12C [Ia-38, ((5R,6S)-5-((1S,3aS,4S,5S,7aR)-4-(aminomethyl)-1,7a-dimethyloctahydro-1H-inden-5-yl)-5-methyl-1-neopentyl-4,5,6,7-tetrahydro-1H-indazol-6-yl)methanol]",< 2000,
,"C[C@H]1CC[C@H]2[C@H](CN)[C@@H]([C@@]3(C)Cc4cnn(C(C)(C)C)c4C[C@@H]3CO)CC[C@]12C [Ia-40, ((5R,6S)-5-((1S,3aS,4S,5S,7aR)-4-(aminomethyl)-1,7a-dimethyloctahydro-1H-inden-5-yl)-1-(tert-butyl)-5-methyl-4,5,6,7-tetrahydro-1H-indazol-6-yl)methanol]",2000 to 6000,
,"C[C@H]1CC[C@H]2[C@H](CN)[C@@H]([C@@]3(C)Cc4cnn(-c5ccccn5)c4C[C@@H]3CO)CC[C@]12C [Ia-42, ((5R,6S)-5-((1S,3aS,4S,5S,7aR)-4-(aminomethyl)-1,7a-dimethyloctahydro-1H-inden-5-yl)-5-methyl-1-(pyridin-2-yl)-4,5,6,7-tetrahydro-1H-indazol-6-yl)methanol]",< 2000,
,"C[C@H]1CC[C@H]2[C@H](CN)[C@@H]([C@@]3(C)Cc4cn(-c5ccccn5)nc4C[C@@H]3CO)CC[C@]12C [Ia-43, ((5R,6S)-5-((1S,3aS,4S,5S,7aR)-4-(aminomethyl)-1,7a-dimethyloctahydro-1H-inden-5-yl)-5-methyl-2-(pyridin-2-yl)-4,5,6,7-tetrahydro-2H-indazol-6-yl)methanol]",< 2000,
A (a PDR^60 of 81 to 100%),"CC(C)CCC[C@@H](C)[C@H]1CC[C@H]2[C@H](CN)[C@@H]([C@@]3(C)Cc4cn[nH]c4C[C@@H]3CN)CC[C@]12C [Ia-57, ((1R,3aS,4S,5S,7aR)-5-((5R,6S)-6-(aminomethyl)-5-methyl-4,5,6,7-tetrahydro-1H-indazol-5-yl)-7a-methyl-1-((R)-6-methylheptan-2-yl)octahydro-1H-inden-4-yl)methanamine]",,
A (a PDR^60 of 81 to 100%),"C=C1CC[C@H]2[C@H](CN)[C@@H]([C@@]3(C)Cc4cn[nH]c4C[C@@H]3CN)CC[C@]12C [Ia-58, ((3aS,4R,5S,7aS)-5-((5R,6S)-6-(aminomethyl)-5-methyl-4,5,6,7-tetrahydro-1H-indazol-5-yl)-7a-methyl-1-methyleneoctahydro-1H-inden-4-yl)methanamine]",,
,"CCCCNc1ccc(C(=O)OCCN(C)C)cc1 [tetracaine, reference compound]",,"EC50 ([2]; Rat DRG excitability, read-out: Average response by the standard compound): 4050 nM"
